Eight molecules from patent US12686673B2 (Blueprint Medicines Corporation, priority 2020, dated 2026) can be followed below.

Each structure is given as a SMILES string. pIC50: −log10 of the molar value. Read-outs that look alike come from different tables or passages of the source.

Common to all, as to format: cell-based
Test [1] has as its target EGFR(D770_N771insSVD) expressing Ba/F3 stable cell line (Homo sapiens, UniProt P00533, DUP768-770, cells depend on it). Nature of the test: Cellular proliferation (Alamar Blue) assay, EGFR D770_N771insSVD Ba/F3. The conditions noted are these: 72 hr, read-out: D770 IC50. The procedure, abridged: (§1)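 Seventy-two-hour compound exposure (3-fold series, final 10–0.0005 μM) of mutant EGFR/HER2 Ba/F3 cells plated at 15,000/well in RPMI with 10% FBS. Alamar Blue added for 3 h at 37 °C as proliferation read-out.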

Test [2] concerns the target EGFR (A767_dupASV) expressing Ba/F3 stable cell line (Homo sapiens, UniProt P00533, DUP767-769, cells depend on it). Nature of the test: Cellular proliferation (Alamar Blue) assay, EGFR A767_dupASV Ba/F3. The conditions noted are these: 72 hr, read-out: A767 IC50. A digest of the protocol: as §1
In a further test the test system is A431 cells. Nature of the test: Cellular proliferation (Alamar Blue) assay, A431. As to conditions: A431 cells, 72 hr, Alamar Blue, read-out: A431 IC50.
For test [3], the target named is EGFR (H773insNPH) expressing Ba/F3 stable cell line (Homo sapiens, UniProt P00533, DUP771-773, cells depend on it). As to the kind of experiment: Cellular proliferation (Alamar Blue) assay, EGFR H773insNPH Ba/F3. The conditions noted are these: 72 hr, read-out: NPH IC50. A digest of the protocol:
as §1

The target of test [4] is HER2 (A775_G776insYVMA) expressing Ba/F3 stable cell line (Homo sapiens, UniProt P04626, DUP772-775, cells depend on it). Nature of the test: Cellular proliferation (Alamar Blue) assay, HER2 A775_G776insYVMA Ba/F3. The conditions noted are these: 72 hr, read-out: YVMA IC50. The procedure, abridged:
as §1

Chain of EGFR (H773insNPH) expressing Ba/F3 stable cell line (P00533 with tags, fused parts or gaps DUP771-773): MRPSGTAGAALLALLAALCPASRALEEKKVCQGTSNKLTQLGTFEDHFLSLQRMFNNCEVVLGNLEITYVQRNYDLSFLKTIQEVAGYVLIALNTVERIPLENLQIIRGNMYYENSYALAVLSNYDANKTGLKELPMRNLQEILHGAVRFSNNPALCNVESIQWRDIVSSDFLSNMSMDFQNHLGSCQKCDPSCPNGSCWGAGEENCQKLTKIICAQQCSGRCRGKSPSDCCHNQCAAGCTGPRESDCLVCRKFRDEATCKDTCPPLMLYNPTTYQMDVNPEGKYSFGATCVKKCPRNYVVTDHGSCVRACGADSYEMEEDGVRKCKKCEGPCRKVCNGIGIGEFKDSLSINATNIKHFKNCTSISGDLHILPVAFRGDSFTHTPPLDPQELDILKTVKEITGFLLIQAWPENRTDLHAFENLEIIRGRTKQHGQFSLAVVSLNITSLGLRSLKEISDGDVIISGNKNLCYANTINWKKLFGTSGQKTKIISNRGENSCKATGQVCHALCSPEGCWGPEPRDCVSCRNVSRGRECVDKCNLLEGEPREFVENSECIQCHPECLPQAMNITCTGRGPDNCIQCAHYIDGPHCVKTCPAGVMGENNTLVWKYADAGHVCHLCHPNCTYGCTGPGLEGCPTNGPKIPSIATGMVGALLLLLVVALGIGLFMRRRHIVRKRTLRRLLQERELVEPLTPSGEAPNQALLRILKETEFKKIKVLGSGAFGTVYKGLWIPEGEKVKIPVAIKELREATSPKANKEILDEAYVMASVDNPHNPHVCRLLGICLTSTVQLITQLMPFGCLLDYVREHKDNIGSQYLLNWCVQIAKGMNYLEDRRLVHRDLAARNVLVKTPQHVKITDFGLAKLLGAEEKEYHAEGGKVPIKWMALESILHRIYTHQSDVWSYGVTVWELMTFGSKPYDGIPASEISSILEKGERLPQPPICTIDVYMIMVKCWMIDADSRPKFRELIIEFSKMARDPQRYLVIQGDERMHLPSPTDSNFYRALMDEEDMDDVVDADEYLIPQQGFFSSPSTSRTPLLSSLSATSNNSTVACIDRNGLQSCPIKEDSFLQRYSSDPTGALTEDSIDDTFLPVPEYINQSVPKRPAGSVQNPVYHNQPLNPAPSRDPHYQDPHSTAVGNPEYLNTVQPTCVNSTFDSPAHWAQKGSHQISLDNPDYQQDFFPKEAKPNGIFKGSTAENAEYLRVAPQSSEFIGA
Chain of EGFR (A767_dupASV) expressing Ba/F3 stable cell line (P00533 with tags, fused parts or gaps DUP767-769): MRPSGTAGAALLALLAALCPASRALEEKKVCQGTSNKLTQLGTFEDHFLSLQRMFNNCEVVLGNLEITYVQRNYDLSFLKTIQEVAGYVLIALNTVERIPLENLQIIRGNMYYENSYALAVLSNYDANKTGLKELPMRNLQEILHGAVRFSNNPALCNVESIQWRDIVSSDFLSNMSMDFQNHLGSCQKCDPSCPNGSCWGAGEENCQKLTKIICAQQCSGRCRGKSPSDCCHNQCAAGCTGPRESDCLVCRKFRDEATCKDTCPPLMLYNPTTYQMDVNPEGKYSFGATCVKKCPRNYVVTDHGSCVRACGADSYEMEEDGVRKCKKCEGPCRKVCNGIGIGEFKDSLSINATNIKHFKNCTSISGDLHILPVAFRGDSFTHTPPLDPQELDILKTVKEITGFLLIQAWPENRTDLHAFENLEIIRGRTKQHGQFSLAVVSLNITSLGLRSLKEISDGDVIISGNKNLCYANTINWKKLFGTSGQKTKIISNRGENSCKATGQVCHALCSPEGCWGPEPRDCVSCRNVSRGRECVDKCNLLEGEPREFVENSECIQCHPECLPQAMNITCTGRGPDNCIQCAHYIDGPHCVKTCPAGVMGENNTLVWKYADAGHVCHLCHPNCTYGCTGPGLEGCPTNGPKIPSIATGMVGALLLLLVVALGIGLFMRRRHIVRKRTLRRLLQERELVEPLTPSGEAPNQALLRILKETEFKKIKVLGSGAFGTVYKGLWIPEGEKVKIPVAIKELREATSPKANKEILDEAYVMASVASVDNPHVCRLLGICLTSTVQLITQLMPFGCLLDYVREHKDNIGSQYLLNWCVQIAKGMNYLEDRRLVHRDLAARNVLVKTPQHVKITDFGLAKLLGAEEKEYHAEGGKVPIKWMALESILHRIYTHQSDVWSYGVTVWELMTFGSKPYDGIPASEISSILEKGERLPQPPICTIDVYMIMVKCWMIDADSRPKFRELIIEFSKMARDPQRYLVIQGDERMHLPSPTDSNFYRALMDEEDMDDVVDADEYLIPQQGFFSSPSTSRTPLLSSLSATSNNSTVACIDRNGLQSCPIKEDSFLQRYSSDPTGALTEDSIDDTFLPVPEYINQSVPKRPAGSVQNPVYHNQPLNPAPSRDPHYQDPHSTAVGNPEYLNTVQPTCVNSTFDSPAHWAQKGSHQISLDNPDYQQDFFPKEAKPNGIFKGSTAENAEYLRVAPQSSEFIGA
Chain of EGFR(D770_N771insSVD) expressing Ba/F3 stable cell line (P00533 with tags, fused parts or gaps DUP768-770): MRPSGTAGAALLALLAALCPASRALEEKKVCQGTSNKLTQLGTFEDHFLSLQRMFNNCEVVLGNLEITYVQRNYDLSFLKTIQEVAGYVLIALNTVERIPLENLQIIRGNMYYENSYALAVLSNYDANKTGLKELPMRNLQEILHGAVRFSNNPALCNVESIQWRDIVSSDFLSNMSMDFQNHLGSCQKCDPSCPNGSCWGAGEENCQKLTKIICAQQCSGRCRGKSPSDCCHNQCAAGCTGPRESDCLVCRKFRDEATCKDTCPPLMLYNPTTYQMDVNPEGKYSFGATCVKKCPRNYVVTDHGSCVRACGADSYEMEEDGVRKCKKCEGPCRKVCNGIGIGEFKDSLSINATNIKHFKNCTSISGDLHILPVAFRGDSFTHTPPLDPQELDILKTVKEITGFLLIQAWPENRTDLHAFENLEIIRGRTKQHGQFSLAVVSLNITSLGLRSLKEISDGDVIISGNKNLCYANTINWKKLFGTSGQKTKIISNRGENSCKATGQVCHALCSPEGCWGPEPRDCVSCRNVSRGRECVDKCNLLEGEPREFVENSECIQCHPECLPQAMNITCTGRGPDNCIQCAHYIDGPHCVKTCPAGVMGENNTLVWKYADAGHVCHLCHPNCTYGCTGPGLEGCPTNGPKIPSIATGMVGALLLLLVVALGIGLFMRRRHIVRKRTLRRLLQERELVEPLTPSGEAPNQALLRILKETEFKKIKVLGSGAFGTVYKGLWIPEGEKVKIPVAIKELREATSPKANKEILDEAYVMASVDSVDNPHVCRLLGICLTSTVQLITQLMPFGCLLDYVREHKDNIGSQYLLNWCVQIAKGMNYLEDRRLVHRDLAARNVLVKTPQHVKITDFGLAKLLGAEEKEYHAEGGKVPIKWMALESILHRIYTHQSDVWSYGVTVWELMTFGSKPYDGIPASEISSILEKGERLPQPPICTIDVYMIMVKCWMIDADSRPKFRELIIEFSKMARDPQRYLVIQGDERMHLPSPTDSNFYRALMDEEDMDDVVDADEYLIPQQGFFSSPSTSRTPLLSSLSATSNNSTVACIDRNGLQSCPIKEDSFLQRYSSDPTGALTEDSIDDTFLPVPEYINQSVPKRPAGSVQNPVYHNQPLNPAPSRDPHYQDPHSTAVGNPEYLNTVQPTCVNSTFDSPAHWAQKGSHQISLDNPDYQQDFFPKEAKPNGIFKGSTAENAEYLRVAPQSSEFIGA
Chain of HER2 (A775_G776insYVMA) expressing Ba/F3 stable cell line (P04626 with tags, fused parts or gaps DUP772-775): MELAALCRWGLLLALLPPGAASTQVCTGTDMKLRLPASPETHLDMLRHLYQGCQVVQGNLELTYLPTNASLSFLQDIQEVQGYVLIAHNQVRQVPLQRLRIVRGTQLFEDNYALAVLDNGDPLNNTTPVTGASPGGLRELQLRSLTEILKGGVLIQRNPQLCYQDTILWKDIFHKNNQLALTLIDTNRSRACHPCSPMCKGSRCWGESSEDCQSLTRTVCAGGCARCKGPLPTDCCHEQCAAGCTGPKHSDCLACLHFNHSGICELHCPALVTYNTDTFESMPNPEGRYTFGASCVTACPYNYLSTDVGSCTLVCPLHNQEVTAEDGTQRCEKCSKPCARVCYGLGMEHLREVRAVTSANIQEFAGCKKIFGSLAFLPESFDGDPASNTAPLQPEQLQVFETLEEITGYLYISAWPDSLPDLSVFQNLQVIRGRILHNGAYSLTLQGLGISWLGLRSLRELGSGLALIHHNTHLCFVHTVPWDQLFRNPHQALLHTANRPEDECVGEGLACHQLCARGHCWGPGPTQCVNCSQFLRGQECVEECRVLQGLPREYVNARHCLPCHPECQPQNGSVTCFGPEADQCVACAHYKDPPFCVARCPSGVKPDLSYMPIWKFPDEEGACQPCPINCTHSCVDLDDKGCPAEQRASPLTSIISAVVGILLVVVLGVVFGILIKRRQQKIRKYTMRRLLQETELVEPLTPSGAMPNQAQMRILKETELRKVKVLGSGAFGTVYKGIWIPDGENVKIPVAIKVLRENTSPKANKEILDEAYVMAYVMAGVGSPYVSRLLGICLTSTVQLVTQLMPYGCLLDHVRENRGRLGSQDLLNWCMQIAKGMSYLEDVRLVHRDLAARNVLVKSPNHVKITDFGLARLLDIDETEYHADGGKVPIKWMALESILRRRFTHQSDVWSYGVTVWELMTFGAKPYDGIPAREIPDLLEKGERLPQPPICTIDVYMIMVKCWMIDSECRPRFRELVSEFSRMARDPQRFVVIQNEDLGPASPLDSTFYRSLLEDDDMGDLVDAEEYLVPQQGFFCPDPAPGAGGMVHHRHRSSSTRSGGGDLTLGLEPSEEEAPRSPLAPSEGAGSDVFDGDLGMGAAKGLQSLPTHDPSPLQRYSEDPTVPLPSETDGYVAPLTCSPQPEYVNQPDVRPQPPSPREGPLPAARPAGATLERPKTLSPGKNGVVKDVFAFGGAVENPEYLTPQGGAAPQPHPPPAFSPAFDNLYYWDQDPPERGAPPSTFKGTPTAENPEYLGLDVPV

As for `C=CC(=O)Nc1ccc(F)c(Nc2nc(Nc3cnn(CCN(C)C)c3)ncc2-c2ccc(Br)cc2)c1` [Compound 203, N-(3-((5-(4-bromophenyl)-2-((1-(2-(dimethylamino)ethyl)-1H-pyrazol-4-yl)amino)pyrimidin-4-yl)amino)-4-fluorophenyl)acrylamide], the GI50 in test [1] is 69 nM; in test [2] it was 100 nM; in test [3], 107 nM; in test [4] it was 110 nM. The pIC50 in the test with A431 cells (Homo sapiens, A-431) was 7.29.

For the molecule `C=CC(=O)Nc1ccc(F)c(Nc2nc(Nc3cn(CCN(C)C)nc3Cl)ncc2-c2ccc(C(F)(F)F)cc2)c1` [Compound 221, N-(3-((2-((3-chloro-1-(2-(dimethylamino)ethyl)-1H-pyrazol-4-yl)amino)-5-(4-(trifluoromethyl)phenyl)pyrimidin-4-yl)amino)-4-fluorophenyl)acrylamide], the GI50 in test [1] is 123 nM; in test [2], 297 nM; in test [3], 225 nM; in test [4], 298 nM. Further, the pIC50 in the test with A431 cells (Homo sapiens, A-431) is 7.17.

As for `C=CC(=O)Nc1ccc(F)c(Nc2nc(Nc3cnn(C)c3)ncc2-c2cncs2)c1` [Compound 230, N-(4-fluoro-3-((2-((1-methyl-1H-pyrazol-4-yl)amino)-5-(thiazol-5-yl)pyrimidin-4-yl)amino)phenyl)acrylamide], the GI50 in test [1] is 63 nM; in test [2], 63 nM; in test [3], 41 nM; in test [4], 54 nM. Besides, the pIC50 in the test on A431 cells (Homo sapiens, A-431) was 6.96.

Regarding `C=CC(=O)Nc1cccc(Oc2nc(Nc3cn(C)nc3Cl)ncc2-c2ccc(C(F)(F)F)cc2)c1` [Compound 233, N-[3-({2-[(3-chloro-1-methyl-1H-pyrazol-4-yl)amino]-5-[4-(trifluoromethyl)phenyl]pyrimidin-4-yl}oxy)phenyl] prop-2-enamide], the GI50 in test [1] is 187 nM; in test [2], 428 nM; in test [3], 385 nM; in test [4], 537 nM. The pIC50 with A431 cells (Homo sapiens, A-431) is 6.58.

Turning to `[2H]C([2H])([2H])n1cc(Nc2ncc(-c3ccc(C(F)(F)F)cc3)c(Nc3cc(NC(=O)C=C)ccc3F)n2)cn1` [Compound 242, N-{4-fluoro-3-[(2-{[1-(^2H3)methyl-1H-pyrazol-4-yl]amino}-5-[4-(trifluoromethyl)phenyl]pyrimidin-4-yl)amino]phenyl}prop-2-enamide], the GI50 in test [1] is 98 nM; in test [2] it was 101 nM; in test [3], 101 nM; in test [4], 133 nM. Also, the pIC50 with A431 cells (Homo sapiens, A-431) was 6.89.

Regarding `C=CC(=O)Nc1ccc(F)c(Nc2nc(Nc3cnn(C)c3)ncc2-c2ccc(C(F)(F)F)cc2)c1` [Compound 243, N-(4-fluoro-3-((2-((1-(methyl-^13C-d3)-1H-pyrazol-4-yl)amino)-5-(4-(trifluoromethyl)phenyl)pyrimidin-4-yl)amino)phenyl)acrylamide], the GI50 in test [1] came out at 88 nM; in test [2], 135 nM; in test [3], 121 nM; in test [4], 237 nM. Moreover, the pIC50 in the test with A431 cells is 5.58.

As to `[2H]C([2H])=CC(=O)Nc1ccc(F)c(Nc2nc(Nc3cnn(C)c3)ncc2-c2ccc(C(F)(F)F)cc2)c1` [Compound 247, N-[4-fluoro-3-({2-[(1-methyl-1H-pyrazol-4-yl)amino]-5-[4-(trifluoromethyl)phenyl]pyrimidin-4-yl}amino)phenyl] (3,3-2H2) prop-2-enamide], the GI50 in test [1] is 86 nM; in test [2], 123 nM; in test [3], 144 nM; in test [4] it was 270 nM. For the same molecule, the pIC50 with A431 cells (Homo sapiens, A-431) is 5.52.

In the case of `[2H]C([2H])=CC(=O)Nc1ccc(F)c(Nc2nc(Nc3cnn(C([2H])([2H])[2H])c3)ncc2-c2ccc(C(F)(F)F)cc2)c1` [Compound 248, N-(4-fluoro-3-((2-((1-(methyl-d3)-1H-pyrazol-4-yl)amino)-5-(4-(trifluoromethyl)phenyl)pyrimidin-4-yl)amino)phenyl)acrylamide-3,3-d2], the GI50 turned out to be 109 nM in test [1], 143 nM in test [2], 43 nM in test [3] and 250 nM in test [4]. In addition, the pIC50 with A431 cells (Homo sapiens, A-431) was 6.65.
